From patent US8968702B2, “Inhibition of HIF-1 activation for anti-tumor and anti-inflammatory responses” (Duke University, priority 2006, dated 2015)
Read-outs that look alike come from different tables or passages of the source. Where a SMILES comes first, the peptide text is derived from it. The star is where a group is joined. Cbz = O=C(OCc1ccccc1)*

How the values were obtained:
B16F10 (murine melanoma) = test: Tumor growth delay with radiotherapy, B16F10 tumors; type: in vivo; settings: syngeneic C57BL/6 mice, 3 fractions of 6 Gy every other day, L-NAME in drinking water
From the text: (§1) Animal experiments. […] Drinking water was renewed daily until animal sacrifice.
(§2) Statistics. Student's t test, one-way and two-way ANOVA were used where indicated. In growth delay experiments, the numbers of days for tumors to reach 5× their initial volume were used for comparing different treatment groups.

tumor vasculature = test: CD31 vessel staining / vascular density in tumors; type: in vivo, mice; settings: 4T1 and B16F10 tumors excised on day 10
Protocol: Vessel staining was performed on tumor cryoslices by using the VECTASTAIN® ABC and the NOVARED™ kits from Vector Laboratories (Burlingame, Calif., United States of America), according to the manufacturer's protocol. The primary anti-CD31 antibody (Santa Cruz Biotechnology, Santa Cruz, Calif.) was labeled with a secondary biotinylated anti-rabbit antibody (Jackson ImmunoResearch Labs, Inc.). Slices were counterstained using Harris' hematoxilin. Vascular density was determined by counting CD31-positive structures in 5 random fields per tumor.

[1] = system: 4T1 (murine mammary adenocarcinoma); test: Tumor growth delay with radiotherapy, 4T1 tumors; type: in vivo; settings: syngeneic mice, 3 fractions of 6 Gy every other day, L-NAME in drinking water
From the text: as §1, §2

[2] = system: constitutively expressed luciferase; test: CMV-luc control reporter in irradiated 4T1 tumors in nude mice; type: in vivo; settings: 4T1-luc tumors, 6 Gy, with or without L-NAME
From the text: Plasmids and cloning procedures. The HIF-1α bioluminescence reporter (ODD-luc) construct was created by fusing PCR product of ODD domain of HIF-1α (GENBANK® Accession No. U59496) to the 5′ end of firefly luciferase reporter gene. Along with this construct, a luciferase expression vector in which luciferase gene was driven by the CMV promoter was used as a control. […] ODD fragments with or without the mutation were cloned into pCMV-3Tag-4B Epitope Tagging Mammalian Expression vector (Stratagene, La Jolla, Calif., United States of America). The full length mouse VHL gene (GENBANK® Accession No. S76748) was cloned form mouse tissue and tagged with HA tag by PCR. All constructs were sequence-verified.
Imaging luciferase activity.
as §1

HIF-1α [3] = test: Radiation-induced ODD-luc in 4T1 tumors in macrophage-depleted nude mice; type: in vivo; settings: 4T1-ODD-luc tumors, carrageenan 2 mg i.p. repeated, 6 Gy
Protocol: Imaging luciferase activity. Luciferase expression/activity was detected and quantified as relative light units (RLUs) by using the Xenogen IVIS™ imaging system and associated LIVING IMAGE® software (Xenogen, Alameda, Calif., United States of America). […] For in vivo experiments, treated tumor-bearing mice received an i.p. injection of luciferin (150 mg/kg) during isofluorane anesthesia. Repeated images of luciferase expression/activity were acquired following manufacturer's specified procedures.
Animal experiments. Female NIH Swiss nude mice, C57BL/6 mice were purchased from the National Cancer Institute (NCI; Fredrick, Md., United States of America). Mice with a genetic disruption of the inducible nitric acid synthase gene (C57BL/6 iNOS^−/−) were obtained from the Jackson Laboratory (Bar Harbor, Me., United States of America). Female BALB/c mice were obtained from Charles River Laboratories (Raleigh, N.C., United States of America). Animals were maintained and cared for in accordance with the Duke University Institutional Animal Care and Use Committee guidelines. For tumor implantation, 4T1 tumors were grown in nude mice or in syngeneic BALB/c mice, and B16F10 melanoma in syngeneic C57BL/6 or iNOS^−/− mice. […]

HIF-1α [4] = type: cell-based, murine

COC(=O)[C@@H](N)CCCNC(=N)N[N+](=O)[O-] [L-NAME, Nω-nitro-L-arginine methyl ester]
tumor growth delay, L-NAME with radiotherapy (B16F10 (murine melanoma)): significantly enhanced the therapeutic efficacy of radiotherapy
tumor vasculature (CD31+ vascular density), L-NAME with radiotherapy (tumor vasculature): significantly reduced tumor vasculature
tumor growth delay, L-NAME with radiotherapy [1]: significantly enhanced the therapeutic efficacy of radiotherapy
activity of constitutively expressed luciferase (CMV-luc control) [2]: did not influence the activity of constitutively expressed luciferase activity

carrageenan
radiation-induced ODD-luc activation after macrophage depletion (HIF-1α [3]): significant reduction in radiation-induced ODD-luc activation

[Cl-].[Cl-].[Co+2] [CoCl2]
luminescence from ODD-luc reporter gene expression (HIF-1α [4]): rose significantly

CC(C)C[C@@H](C=O)NC(=O)[C@H](CC(C)C)NC(=O)[C@H](CC(C)C)NC(=O)OCc1ccccc1 [MG132] (Cbz-Leu-Leu-Leu-aldehyde)
luminescence from ODD-luc reporter gene expression (HIF-1α [4]; CoCl2 240 μM for 12 hrs, MG132 10 μM for 12 hrs, versus background): rose significantly

CC1(C)N([O])C(c2ccc(C(=O)[O-])cc2)=[N+]([O-])C1(C)C.[K+] [carboxy-PTIO, potassium 2-(4-carboxyphenyl)-4,4,5,5-tetramethylimidazoline-1-oxyl-3-oxide]
suppression of GSNO-induced HIF-1α activation (ODD-luc) (HIF-1α [4]): effectively suppressed HIF-1α activation by GSNO
